The test system of one assay is Nilaparvata lugens. Nature of the assay: Nilaparvata lugens seedling dip test (paddy seedlings, third instar nymphs). As to conditions: 72 h after release, dead and moribund combined, compared to untreated control, read-out: percent mortality. It is filed as in vivo.
In a further assay the test system is Myzus persicae. Nature of the assay: Myzus persicae leaf dip test (capsicum leaves, third instar nymphs). It counts as in vivo. As to conditions: foliar, 72 h after release, dead and moribund combined, compared to untreated control, read-out: percent mortality.

Some results are limits rather than exact numbers.

Consider `O=c1nc2n(Cc3cnc(Cl)s3)cccc-2c(=O)n1-c1ccccc1` [Compound 62, 8-((2-chlorothiazol-5-yl)methyl)-3-phenylpyrido[2,3-d]pyrimidine-2,4(3H,8H)-dione], for which the mortality at 300 ppm in the assay with Nilaparvata lugens was at least 70%. The same measure, in the same setting: next, `COc1cccc(-n2c(=O)nc3n(Cc4cnc(Cl)s4)cccc-3c2=O)c1` [Compound 72, 8-((2-chlorothiazol-5-yl)methyl)-3-(3-methoxyphenyl)pyrido[2,3-d]pyrimidine-2,4(3H,8H)-dione]: at least 70%. Turning to `COc1ccccc1-n1c(=O)nc2n(Cc3cnc(Cl)s3)cccc-2c1=O` [Compound 73, 8-((2-chlorothiazol-5-yl)methyl)-3-(2-methoxyphenyl)pyrido[2,3-d]pyrimidine-2,4(3H,8H)-dione], the mortality at 300 ppm in the assay with Myzus persicae and in the assay on Nilaparvata lugens was at least 70% throughout. Consider `Cc1cccc(-n2c(=O)nc3n(Cc4cnc(Cl)nc4)cccc-3c2=O)c1` [Compound 128, 8-((2-chloropyrimidin-5-yl)methyl)-3-(m-tolyl)pyrido[2,3-d]pyrimidine-2,4(3H,8H)-dione], for which, in the assay with Nilaparvata lugens, the mortality at 300 ppm is at least 70%.

As for `O=c1nc2n(Cc3cnc(Cl)s3)cccc-2c(=O)n1-c1cc(F)cc(F)c1` [Compound 141, 8-((2-chlorothiazol-5-yl)methyl)-3-(3,5-difluorophenyl)pyrido[2,3-d]pyrimidine-2,4(3H,8H)-dione], the mortality at 300 ppm in the assay with Myzus persicae and in the assay on Nilaparvata lugens was at least 70% throughout. Regarding `O=c1nc2n(Cc3cnc(Cl)s3)cccc-2c(=O)n1-c1cccc(F)c1` [Compound 143, 8-((2-chlorothiazol-5-yl)methyl)-3-(3-fluorophenyl)pyrido[2,3-d]pyrimidine-2,4(3H,8H)-dione], in the assay on Nilaparvata lugens, the mortality at 300 ppm is at least 70%. On to `O=c1nc2n(Cc3cnc(Cl)s3)cccc-2c(=O)n1-c1cccc(OC(F)F)c1` [Compound 151, 8-((2-chlorothiazol-5-yl)methyl)-3-(3-(difluoromethoxy)phenyl)pyrido[2,3-d]pyrimidine-2,4(3H,8H)-dione], for which the mortality at 300 ppm with Myzus persicae and with Nilaparvata lugens was at least 70% in each case.

For the molecule `O=c1nc2n(Cc3cnc(Cl)s3)cccc-2c(=O)n1-c1ccc(F)cc1` [Compound 153, 8-((2-chlorothiazol-5-yl)methyl)-3-(4-fluorophenyl)pyrido[2,3-d]pyrimidine-2,4(3H,8H)-dione], the mortality at 300 ppm in the assay on Nilaparvata lugens is at least 70%. For the molecule `O=c1nc2n(Cc3cnc(Cl)nc3)cccc-2c(=O)n1-c1ccc(OC(F)F)cc1` [Compound 160, 8-((2-chloropyrimidin-5-yl)methyl)-3-(4-(difluoromethoxy)phenyl)pyrido[2,3-d]pyrimidine-2,4(3H,8H)-dione], the mortality at 300 ppm in the assay with Myzus persicae and with Nilaparvata lugens was at least 70% in each case. For `O=c1nc2n(Cc3ccc(C(F)(F)F)nc3)cccc-2c(=O)n1-c1ccccc1F` [Compound 162, 3-(2-fluorophenyl)-8-((6-(trifluoromethyl)pyridin-3-yl)methyl)pyrido[2,3-d]pyrimidine-2,4(3H,8H)-dione], the mortality at 300 ppm in the assay on Nilaparvata lugens was at least 70%. On the same count and under the same terms, next, `O=c1nc2n(Cc3cnc(Cl)s3)cccc-2c(=O)n1-c1ccc(F)c(Cl)c1` [Compound 165, 3-(3-chloro-4-fluorophenyl)-8-((2-chlorothiazol-5-yl)methyl)pyrido[2,3-d]pyrimidine-2,4(3H,8H)-dione]: at least 70%. On to `O=c1nc2n(Cc3ccc(C(F)(F)F)nc3)cccc-2c(=O)n1-c1cccc(C(F)(F)F)c1` [Compound 172, 3-(3-(trifluoromethyl)phenyl)-8-((6-(trifluoromethyl)pyridin-3-yl)methyl)pyrido[2,3-d]pyrimidine-2,4(3H,8H)-dione], for which, in the assay with Myzus persicae, the mortality at 300 ppm is at least 70%. For `O=c1nc2n(Cc3cnc(Cl)nc3)cccc-2c(=O)n1-c1ccsc1` [Compound 179, 8-((2-chloropyrimidin-5-yl)methyl)-3-(thiophen-3-yl)pyrido[2,3-d]pyrimidine-2,4(3H,8H)-dione], the mortality at 300 ppm in the assay on Myzus persicae and in the assay with Nilaparvata lugens was at least 70% each time.

`O=c1nc2n(Cc3cnc(Cl)s3)cccc-2c(=O)n1-c1cccc(C(F)F)c1` [Compound 187, 8-((2-chlorothiazol-5-yl)methyl)-3-(3-(difluoromethyl)phenyl)pyrido[2,3-d]pyrimidine-2,4(3H,8H)-dione]: the mortality at 300 ppm in the assay with Myzus persicae and in the assay on Nilaparvata lugens was at least 70% throughout. For `O=c1nc2n(Cc3cnc(Cl)s3)cccc-2c(=O)n1-c1ccc(Cl)cc1F` [Compound 193, 3-(4-chloro-2-fluorophenyl)-8-((2-chlorothiazol-5-yl)methyl)pyrido[2,3-d]pyrimidine-2,4(3H,8H)-dione], the mortality at 300 ppm with Myzus persicae and in the assay with Nilaparvata lugens was at least 70% in each case.

As to `O=c1nc2n(Cc3ccc(Cl)nc3)cccc-2c(=O)n1-c1ccc(OC(F)(F)F)c(Cl)c1` [Compound 195, 3-(3-chloro-4-(trifluoromethoxy)phenyl)-8-((6-chloropyridin-3-yl)methyl)pyrido[2,3-d]pyrimidine-2,4(3H,8H)-dione], the mortality at 300 ppm with Myzus persicae and in the assay with Nilaparvata lugens was at least 70% throughout. For the molecule `O=c1nc2n(Cc3cnc(Cl)nc3)cccc-2c(=O)n1-c1cccc(C(F)F)c1` [Compound 203, 8-((2-chloropyrimidin-5-yl)methyl)-3-(3-(difluoromethyl)phenyl)pyrido[2,3-d]pyrimidine-2,4(3H,8H)-dione], the mortality at 300 ppm in the assay with Myzus persicae and in the assay on Nilaparvata lugens was at least 70% throughout. In the case of `O=c1nc2n(Cc3cnc(Cl)nc3)cccc-2c(=O)n1-c1cccc(F)c1F` [Compound 205, 8-((2-chloropyrimidin-5-yl)methyl)-3-(2,3-difluorophenyl)pyrido[2,3-d]pyrimidine-2,4(3H,8H)-dione], the mortality at 300 ppm in the assay on Myzus persicae and with Nilaparvata lugens was at least 70% in each case. For `O=c1nc2n(Cc3ccc(Cl)nc3)cccc-2c(=O)n1-c1cccc(OCC(F)(F)F)c1` [Compound 211, 8-((6-chloropyridin-3-yl)methyl)-3-(3-(2,2,2-trifluoroethoxy)phenyl)pyrido[2,3-d]pyrimidine-2,4(3H,8H)-dione], the mortality at 300 ppm with Myzus persicae and with Nilaparvata lugens was at least 70% throughout. On to `O=c1nc2n(Cc3cnc(Cl)s3)cccc-2c(=O)n1-c1ccc(OC(F)(F)F)c(Cl)c1` [Compound 212, 3-(3-chloro-4-(trifluoromethoxy)phenyl)-8-((2-chlorothiazol-5-yl)methyl)pyrido[2,3-d]pyrimidine-2,4(3H,8H)-dione], for which the mortality at 300 ppm in the assay on Myzus persicae and with Nilaparvata lugens was at least 70% in each case. Regarding `O=c1nc2n(Cc3cnc(Cl)s3)cccc-2c(=O)n1-c1cccc(F)c1F` [Compound 214, 8-((2-chlorothiazol-5-yl)methyl)-3-(2,3-difluorophenyl)pyrido[2,3-d]pyrimidine-2,4(3H,8H)-dione], the mortality at 300 ppm in the assay on Myzus persicae and in the assay with Nilaparvata lugens was at least 70% throughout. On to `O=c1nc2n(Cc3cnc(Cl)s3)cccc-2c(=O)n1-c1c(F)cccc1F` [Compound 215, 8-((2-chlorothiazol-5-yl)methyl)-3-(2,6-difluorophenyl)pyrido[2,3-d]pyrimidine-2,4(3H,8H)-dione], for which the mortality at 300 ppm with Nilaparvata lugens was at least 70%. As for `O=c1nc2n(Cc3cnc(Cl)s3)cccc-2c(=O)n1-c1cccc(Cl)c1F` [Compound 217, 3-(3-chloro-2-fluorophenyl)-8-((2-chlorothiazol-5-yl)methyl)pyrido[2,3-d]pyrimidine-2,4(3H,8H)-dione], the mortality at 300 ppm in the assay with Myzus persicae and in the assay on Nilaparvata lugens was at least 70% in each case.

As for `O=c1nc2n(Cc3ccc(Cl)nc3)cccc-2c(=O)n1-c1ccc(Cl)c(C(F)(F)F)c1` [Compound 219, 3-(4-chloro-3-(trifluoromethyl)phenyl)-8-((6-chloropyridin-3-yl)methyl)pyrido[2,3-d]pyrimidine-2,4(3H,8H)-dione], the mortality at 300 ppm in the assay on Nilaparvata lugens was at least 70%.

`O=c1nc2n(Cc3ccc(Cl)nc3)cccc-2c(=O)n1-c1ccc(F)c(C(F)(F)F)c1` [Compound 222, 8-((6-chloropyridin-3-yl)methyl)-3-(4-fluoro-3-(trifluoromethyl)phenyl)pyrido[2,3-d]pyrimidine-2,4(3H,8H)-dione]: the mortality at 300 ppm in the assay on Myzus persicae was at least 70%.

As for `O=c1nc2n(Cc3cnc(Cl)nc3)cccc-2c(=O)n1-c1cccc(Cl)c1F` [Compound 226, 3-(3-chloro-2-fluorophenyl)-8-((2-chloropyrimidin-5-yl)methyl)pyrido[2,3-d]pyrimidine-2,4(3H,8H)-dione], the mortality at 300 ppm in the assay with Myzus persicae and in the assay on Nilaparvata lugens was at least 70% throughout. As to `O=c1nc2n(Cc3cnc(Cl)s3)cccc-2c(=O)n1-c1ccc(F)cc1Cl` [Compound 237, 3-(2-chloro-4-fluorophenyl)-8-((2-chlorothiazol-5-yl)methyl)pyrido[2,3-d]pyrimidine-2,4(3H,8H)-dione], in the assay on Nilaparvata lugens, the mortality at 300 ppm is at least 70%.

In the case of `O=c1nc2n(Cc3cnc(Cl)nc3)cccc-2c(=O)n1-c1ccc(C2CC2)cc1` [Compound 245, 8-((2-chloropyrimidin-5-yl)methyl)-3-(4-cyclopropylphenyl)pyrido[2,3-d]pyrimidine-2,4(3H,8H)-dione], in the assay with Nilaparvata lugens, the mortality at 300 ppm was at least 70%. As for `O=c1nc2n(Cc3cnc(Cl)s3)cccc-2c(=O)n1-c1cccc(Br)c1` [Compound 249, 3-(3-bromophenyl)-8-((2-chlorothiazol-5-yl)methyl)pyrido[2,3-d]pyrimidine-2,4(3H,8H)-dione], in the assay on Nilaparvata lugens, the mortality at 300 ppm is at least 70%.

Source of the values: patent US20240425502A1, “BICYCLIC HETEROAROMATIC COMPOUNDS AND THEIR USE AS PEST CONTROL AGENTS” (PI INDUSTRIES LTD., priority 2021, published 2024).
